Structures can show the parent of a compound that is named as a salt.
| melting point | Compound |
| --- | --- |
| 188 to 190 °C | NS(=O)(=O)c1ccc(-n2nc(C(F)(F)F)cc2-c2ccc(-c3cscn3)cc2)cc1 (as salt: hydrochloride) [Example 100, 4-[5-[4-(1,3-Thiazol-4-yl)phenyl]-3-(trifluoromethyl)-1H-pyrazol-1-yl]benzenesulfonamide] |
| 153 to 157 °C | CS(=O)(=O)c1ccc(-n2ncc(C#N)c2-c2ccc(-c3ccco3)cc2)cc1F [Example 163, 4-Cyano-1-[3-fluoro-4-(methylsulfonyl)phenyl]-5-[4-(2-furyl)phenyl]-1H-pyrazole] |
| 147 to 150 °C | Cc1ccc(-c2ccc(S(C)(=O)=O)c(F)c2)n1-c1ccc(-c2ccoc2)cc1 [Example 36, 5-[3-Fluoro-4-(methylsulfonyl)phenyl]-1-[4-(3-furyl)phenyl]-2-methyl-1H-pyrrole] |
| 188 to 190 °C | CS(=O)(=O)c1ccc(C2=C(c3ccc(-c4ccoc4)cc3)C(=O)OC2)cc1 [Example 34, 3-[4-(3-Furyl)phenyl]-4-[4-(methylsulfonyl)phenyl]-2-(5H)-furanone] |
| 135 to 139 °C | Cc1cc(-n2nc(C(F)(F)F)cc2-c2ccc(-c3ccco3)cc2)ccc1S(C)(=O)=O (as salt: hydrochloride) [Example 157, 5-[4-(2-Furyl)phenyl]-1-[3-methyl-4-(methylsulfonyl)phenyl]-3-(trifluoromethyl)-1H-pyrazole] |
| 190 to 192 °C | CS(=O)(=O)c1ccc(-n2nc(C(F)(F)F)cc2-c2ccc(-c3ncco3)cc2)cc1 (as salt: hydrochloride) [Example 97, 2-{4-[1-[4-(Methylsulfonyl)phenyl]-3-(trifluoromethyl)-1H-pyrazol-5-yl]phenyl}-1,3-oxazole] |
| 193 to 195 °C | Cc1cc(-c2ccc(-c3ccoc3)cc2)n(-c2ccc(S(C)(=O)=O)cc2)c1 [Example 56, 2-[4-(3-Furyl)phenyl]-4-methyl-1-[4-(methylsulfonyl)phenyl]-1H-pyrrole] |
| 220 to 222 °C | CS(=O)(=O)c1ccc(C2=C(c3ccc(-c4ccsc4)cc3)C(=O)OC2)cc1 [Example 32, 3-[4-(3-Thienyl)phenyl]4-[4-(methylsulfonyl)phenyl]-2-(5H)-furanone] |
| 198 to 201 °C | CS(=O)(=O)c1ccc(C2=C(c3ccc(-c4cccs4)cc3)C(=O)OC2)cc1 [Example 33, 3-[4-(2-Thienyl)phenyl]-4-[4-(methylsulfonyl)phenyl]-2-(5H)-furanone] |
| 173 to 175 °C | NS(=O)(=O)c1ccc(-n2nc(C(F)(F)F)cc2-c2ccc(-c3cscn3)c(Cl)c2)cc1F (as salt: hydrochloride) [Example 122, 2-Fluoro-4-[5-[3-chloro-4-(1,3-thiazol-4-yl)phenyl]-3-(trifluoromethyl)-1H-pyrazol-1-yl]benzenesulfonamide] |
| 72 to 74 °C | CS(=O)(=O)c1ccc(-n2nc(C(F)(F)F)cc2-c2ccc(-c3ccsc3)cc2)cc1F [Example 87, 1-[3-Fluoro-4-(methylsulfonyl)phenyl]-5-[4-(3-thienyl)phenyl]-3-(trifluoromethyl)-1H-pyrazole] |
| 196 to 198 °C | NS(=O)(=O)c1ccc(-n2nc(C(F)(F)F)cc2-c2ccc(-c3cscn3)c(F)c2)cc1F (as salt: hydrochloride) [Example 114, 2-Fluoro-4-[5-[3-fluoro-4-(1,3-thiazol-4-yl)phenyl]-3-(trifluoromethyl)-1H-pyrazol-1-yl]benzenesulfonamide] |
| 165 to 166 °C | CS(=O)(=O)c1ccc(-n2nc(C(F)(F)F)cc2-c2ccc(-c3ccoc3)cc2)cc1 [Example 20, 1-[4-(Methylsulfonyl)phenyl]-5-[4-(3-furyl)phenyl]-3-trifluoromethyl-1H-pyrazole] |
| 114 to 116 °C | Cc1cc(-c2noc(C)c2-c2ccc(S(N)(=O)=O)c(F)c2)ccc1-c1cscn1 [Example 188, 2-Fluoro-4-[5-methyl-3-[3-methyl-4-(1,3-thiazol-4-yl)phenyl]-4-isoxazolyl]benzenesulfonamide] |
| 139 to 141 °C | Cc1nc(-c2ccc(-c3cc(C(F)(F)F)nn3-c3ccc(S(C)(=O)=O)c(F)c3)cc2)cs1 [Example 102, 4-{4-[1-[3-Fluoro-4-(methylsulfonyl)phenyl]-3-(trifluoromethyl)-1H-pyrazol-5-yl]phenyl}-2-methyl-1,3-thiazole] |
| 147 to 149 °C | Cc1cc(-n2nc(C(F)(F)F)cc2-c2ccc(-c3cscn3)cc2)ccc1S(C)(=O)=O (as salt: hydrochloride) [Example 101, 4-{4-[1-[3-Methyl-4-(methylsulfonyl)phenyl]-3-(trifluoromethyl)-1H-pyrazol-5-yl]phenyl}-1,3-thiazole] |
| 140 to 142 °C | CS(=O)(=O)c1ccc(-n2nc(C(F)(F)F)cc2-c2ccc(-c3ncco3)cc2)cc1F [Example 96, 2-{4-[1-[3-Fluoro-4-(methylsulfonyl)phenyl]-3-(trifluoromethyl)-1H-pyrazol-5-yl]phenyl}-1,3-oxazole] |

| melting point | Compound |
| --- | --- |
| 164 to 166 °C | COc1cc(-c2cc(C(F)(F)F)nn2-c2ccc(S(C)(=O)=O)cc2)ccc1-c1cscn1 (as salt: hydrochloride) [Example 120, 4-{2-Methoxy-4-[1-[4-(methylsulfonyl)phenyl]-3-(trifluoromethyl)-1H-pyrazol-5-yl]phenyl}-1,3-thiazole] |
| 215 to 217 °C | NS(=O)(=O)c1ccc(-n2nc(C(F)(F)F)cc2-c2ccc(-c3ncco3)cc2)cc1 (as salt: hydrochloride) [Example 98, 4-[5-[4-(1,3-Oxazol-2-yl)phenyl]-3-(trifluoromethyl)-1H-pyrazol-1-yl]benzenesulfonamide] |
| 172 °C | CCOC(=O)c1cc(-c2ccc(-c3ccco3)cc2)n(-c2ccc(S(C)(=O)=O)c(F)c2)n1 [Example 126, Ethyl 1-[3-Fluoro-4-(methylsulfonyl)phenyl]-5-[4-(2-furyl)phenyl]-1H-pyrazole-3-carboxylate] |
| 112 to 115 °C | Cc1onc(-c2ccc(-c3cscn3)cc2)c1-c1ccc(S(N)(=O)=O)cc1 [Example 171, 4-{5-Methyl-3-[4-(1,3-thiazol-4-yl)phenyl]-4-isoxazolyl}benzenesulfonamide] |
| 171.8 °C | NS(=O)(=O)c1ccc(-n2nc(C(F)(F)F)cc2-c2ccc(-c3ccco3)c(Cl)c2)cc1F [Example 138, 4-[5-[3-Chloro-4-(2-furyl)phenyl]-3-(trifluoromethyl)-1H-pyrazol-1-yl]-2-fluorobenzenesulfonamide] |
| 140 to 142 °C | Cc1cc(-c2cc(C(F)(F)F)nn2-c2ccc(S(C)(=O)=O)cc2)ccc1-c1cscn1 (as salt: hydrochloride) [Example 125, 4-{2-Methyl-4-[1-[4-(methylsulfonyl)phenyl]-3-(trifluoromethyl)-1H-pyrazol-5-yl]phenyl}-1,3-thiazole] |
| 196 to 198 °C | CNC(=O)c1cc(-c2ccc(-c3ccco3)cc2)n(-c2ccc(S(C)(=O)=O)c(F)c2)n1 [Example 131, N-Methyl-1-[3-fluoro-4-(methylsulfonyl)phenyl]-5-[4-(2-furyl)phenyl]-1H-pyrazole-3-carboxamide] |
| 174.7 °C | Cc1cc(-c2cscn2)ccc1-c1cc(C(F)(F)F)nn1-c1ccc(S(C)(=O)=O)cc1 (as salt: methanesulfonate) [Example 186, 1-[4-(Methylsulfonyl)phenyl]-5-[2-methyl-4-(4-thiazolyl)phenyl]-3-trifluoromethyl-1H-pyrazole] |
| 194.2 °C | NS(=O)(=O)c1ccc(C2=C(c3ccc(-c4cscn4)cc3)C(=O)OC2)cc1F [Example 167, 2-Fluoro-4-[5-oxo-4-[4-(1,3-thiazol-4-yl)phenyl]-2,5-dihydro-3-furanyl]benzenesulfonamide] |
| 112 to 114 °C | Cc1cc(-c2cc(C(F)(F)F)nn2-c2ccc(S(N)(=O)=O)cc2)ccc1-c1cocn1 (as salt: hydrochloride) [Example 116, 4-[5-[3-Methyl-4-(1,3-oxazol-4-yl)phenyl]-3-(trifluoromethyl)-1H-pyrazol-1-yl]benzenesulfonamide] |
| 196 to 197 °C | Cc1nc(-c2ccc(-c3cscn3)cc2)c(-c2ccc(S(C)(=O)=O)c(F)c2)o1 [Example 169, 5-[3-Fluoro-4-(methylsulfonyl)phenyl]-2-methyl-4-[4-(1,3-thiazol-4-yl)phenyl]-1,3-oxazole] |
| 156 to 158 °C | CS(=O)(=O)c1ccc(-n2nc(C(F)(F)F)cc2-c2ccc(-c3cscn3)c(F)c2)cc1F [Example 105, 4-{4-[1-[3-Fluoro-4-(methylsulfonyl)phenyl]-3-(trifluoromethyl)-1H-pyrazol-5-yl]-2-fluorophenyl}-1,3-thiazole] |
| 200 to 202 °C | Cc1ccc(-c2ccc(S(C)(=O)=O)cc2)n1-c1ccc(-c2ccoc2)cc1 [Example 38, 5-[4-(Methylsulfonyl)phenyl]-1-[4-(3-furyl)phenyl]-2-methyl-1H-pyrrole] |
| 143 to 145 °C | CS(=O)(=O)c1ccc(-n2nc(C(F)(F)F)cc2-c2ccc(-c3ccco3)c(Cl)c2)cc1 (as salt: hydrochloride) [Example 71, 1-[4-(Methylsulfonyl)phenyl]-5-[3-chloro-4-(2-furyl)phenyl]-3-(trifluoromethyl)-1H-pyrazole] |
| 131.9 °C | Cc1cc(-c2cscn2)ccc1-c1cc(C(F)(F)F)nn1-c1ccc(S(C)(=O)=O)c(F)c1 (as salt: methanesulfonate) [Example 187, 1-[3-Fluoro4-(methylsulfonyl)phenyl]-5-[2-methyl-4-(4-thiazolyl)phenyl]-3-trifluoromethyl-1H-pyrazole] |
| 183 to 184 °C | CS(=O)(=O)c1ccc(-n2nc(C(F)(F)F)cc2-c2ccc(-n3ccnc3)cc2)cc1 [Example 66, 5-[4-(1-Imidazolyl)phenyl]-1-[4-(methylsulfonyl)phenyl]-3-trifluoromethyl-1H-pyrazol] |
| 108 to 110 °C | CS(=O)(=O)c1ccc(-n2nc(C(F)(F)F)cc2-c2ccc(-c3cscn3)c(Cl)c2)cc1F [Example 109, 4-{2-Chloro-4-[1-[3-fluoro-4-(methylsulfonyl)phenyl]-3-(trifluoromethyl)-1H-pyrazol-5-yl]phenyl}-1,3-thiazole] |

— patent US6949536B2, “Sulfonylbenzene compounds as anti-inflammatory/analgesic agents” (Pfizer, Inc., priority 1998, dated 2005)
